Experiments:
[1] = test system: Monocotyledonous and dicotyledonous test plants; test: Example B1 herbicidal action, application post-emergence (Table B1a); format: in vivo; details: 250 g/ha, evaluated after 3 weeks, scale 0-10
Procedure: Monocotyledonous and dicotyledonous test plants were sown in seed trays in standard soil. Immediately after sowing (pre-emergence) or after 8 to 9 days cultivation (post-emergence), the test compounds were applied by spraying in the form of an aqueous solution derived from the formulation of the technical active ingredient in 0.6 ml acetone and 45 ml formulation solution containing 10.6% Emulsogen EL (CAS RN 61791-12-6), 42.2% N-methylpyrrolidone, 42.2% dipropylene glycol monomethyl ether (CAS RN 34590-94-8) and 0.2% X-77 (CAS RN 11097-66-8). The test plants were then grown in a greenhouse under optimum conditions. After a test duration of 3 weeks (post-emergence) or 4 weeks (pre-emergence), the test was evaluated (10=total damage to plant, 0=no damage to plant).

[2] = test system: Monocotyledonous and dicotyledonous test plants; test: Example B1 herbicidal action, application pre-emergence (Table B1b); format: in vivo; details: 250 g/ha, evaluated after 4 weeks
Procedure, shortened: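 Visual damage rating, 10 = plant dead and 0 = unharmed, taken at 3 weeks for post-emergence and 4 weeks for pre-emergence treatment. Application by spray of formulated aqueous solution either immediately after sowing or at 8–9 days' growth, with mono- and dicot plants kept in a greenhouse.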

| SMILES | herbicidal damage rating, Abutilon [1] | herbicidal damage rating, Amaranthus [1] | herbicidal damage rating, Digitaria [1] | herbicidal damage rating, Panicum [1] | herbicidal damage rating, Setaria [1] | herbicidal damage rating, Sida [1] | herbicidal action (damage rating 0-10), Amaranthus [2] | herbicidal action (damage rating 0-10), Digitaria [2] | herbicidal action (damage rating 0-10), Panicum [2] | herbicidal action (damage rating 0-10), Setaria [2] | herbicidal action (damage rating 0-10), Sida [2] |
| --- | --- | --- | --- | --- | --- | --- | --- | --- | --- | --- | --- |
| CC1(C)CC(S(=O)(=O)C(F)(F)c2cccc(F)c2F)=NO1 [1.116] | 5 | 5 | 8 | 7 | 7 | 0 | 10 | 10 | 10 | 10 | 7 |
| Cc1ccccc1C(F)(Cl)S(=O)(=O)C1=NOC(C)(C)C1 (racemic) [1.74] | 0 | 0 | 8 | 5 | 3 | 3 | 5 | 9 | 10 | 9 | 7 |
| CC1(C)CC(S(=O)(=O)C(Cl)c2cccnc2Cl)=NO1 (stereo not drawn) [8.01] | 3 | 0 | 0 | 3 | 0 | 3 | 5 | 8 | 8 | 5 | 0 |
| Cn1nc(C(F)(F)F)c(C(Cl)S(=O)(=O)C2=NOC(C)(C)C2)c1OC(F)F (stereo not drawn) [2.16] | 7 | 8 | 4 | 0 | 8 | 7 | 10 | 10 | 10 | 10 | 7 |
| CC1(C)CC(S(=O)(=O)C(F)(F)c2ccccc2OC(F)F)=NO1 [1.66] | 8 | 5 | 8 | 5 | 7 | 5 | 10 | 10 | 10 | 10 | 9 |
| CC1(C)CC(S(=O)(=O)C(F)(F)c2cc(F)cc(F)c2)=NO1 [1.115] | 2 | 5 | 8 | 8 | 7 | 0 | 10 | 10 | 10 | 10 | 8 |
| Cc1ccccc1C(F)(F)S(=O)(=O)C1=NOC(C)(C)C1 [1.92] | 5 | 3 | 8 | 5 | 7 | 7 | 10 | 10 | 10 | 10 | 8 |
| CC1(C)CC(S(=O)(=O)C(Br)c2cccc(F)c2F)=NO1 (stereo not drawn) [1.132] | 3 | 3 | 8 | 8 | 5 | 0 | 10 | 10 | 10 | 10 | 4 |
| CC1(C)CC(S(=O)(=O)C(Cl)c2ccccc2OC(F)(F)F)=NO1 (stereo not drawn) [1.143] | 3 | 7 | 7 | 7 | 6 | 2 | 7 | 10 | 10 | 10 | 7 |
| CC1(C)CC(S(=O)(=O)C(F)c2cccnc2Cl)=NO1 (stereo not drawn) [8.02] | 2 | 0 | 6 | 3 | 3 | 3 | 7 | 9 | 10 | 8 | 0 |
| CC1(C)CC(S(=O)(=O)C(F)(F)c2ccccc2C#N)=NO1 [1.72] | 3 | 8 | 7 | 7 | 8 | 0 | 10 | 10 | 10 | 10 | 6 |
| Cn1nc(C(F)(F)F)c(C(F)(F)S(=O)(=O)C2=NOC(C)(C)C2)c1OC(F)F [2.11] | 7 | 5 | 7 | 7 | 7 | 7 | 10 | 10 | 10 | 10 | 9 |
| CC1(C)CC(S(=O)(=O)C(Br)c2ccccc2C#N)=NO1 (racemic) [1.83] | 5 | 5 | 9 | 7 | 7 | 3 | 9 | 9 | 10 | 9 | 0 |
| Cn1nc(C(F)(F)F)c(C(Cl)(Cl)S(=O)(=O)C2=NOC(C)(C)C2)c1OCC(F)(F)F [2.13] | 6 | 7 | 5 | 7 | 8 | 7 | 10 | 10 | 10 | 10 | 7 |
| CC1(C)CC(S(=O)(=O)C(F)(Cl)c2ccccc2OC(F)(F)F)=NO1 (stereo not drawn) [1.144] | 3 | 3 | 8 | 7 | 7 | 5 | 10 | 10 | 10 | 10 | 8 |
| COc1cc(OC)cc(C(F)(F)S(=O)(=O)C2=NOC(C)(C)C2)c1 [1.76] | 5 | 3 | – | 5 | 5 | 5 | 9 | 9 | 10 | 8 | 3 |
| CC1(C)CC(S(=O)(=O)C(F)(Br)c2c(F)cccc2F)=NO1 (stereo not drawn) [Compound No. 1.63, 3-[bromo-(2,6-difluorophenyl)-fluoro-methanesulfonyl]-5,5-dimethyl-4,5-dihydroisoxazole] | 4 | 3 | 7 | 7 | 7 | 4 | 10 | 10 | 10 | 10 | 8 |
